In patent US11629055B2, “Magnesium phosphate hydrogels” (INViCARE INC., priority 2015, dated 2023):

How the values were obtained:
mice tibial fracture = assay: Mice tibial fracture model (guarding, weight bearing, micro-CT, three point bending); assay type: in vivo; conditions: three point bending test, two weeks following fracture
Procedure: The effects of NMP alone, NMP combined with mepivacaine and mepivacaine alone, on post-fracture mobilization, postoperative pain and bone healing were assessed in vivo using a standardized mice tibial fracture model (St-Arnaud, The Journal of steroid biochemistry and molecular biology 121, 254-256 (2010)). Thirty-two mice were randomly assigned into four groups (n=8, each); saline, mepivacaine, NMP and NMP+mepivacaine. Thirty minutes prior to surgical intervention, each mouse was injected with Carprofen (20 mg/kg; SC).
The animal was then anesthetized with isoflurane (3-5% at the induction time and 2-2.5% during the maintenance period). […] A longitudinal skin incision was made in order to expose the right patellar tendon. […]
Post-operative Animals' pain perception and locomotion were evaluated, at different time point; […], 3 days, one week and two weeks post fracture, by assessing mice guarding (Yasuda et al., Journal of pain research 6, 161 (2013)) and weight bearing per each leg, respectively. […] Guarding behavior was assessed as following; each mouse was placed individually in a clear plastic box on an elevated stainless steel mesh. […]
Weight bearing test was performed as following; an incapacitance meter (IITC.inc, CA, US) was used for determination of hind paw weight distribution. […] The weight exerted by each hind limb was measured and averaged over a period of 5 seconds. […]

[1] = In vitro drug release of mepivacaine (dialysis tube, PBS, 37° C., UV-Vis); assay type: physicochemical
Procedure: For the in vitro drug release, mepivacaine hydrochloride was dissolved in 1 mL of gel previously prepared to reach different mepivacaine concentration. The pH of the resulting thixotropic colloidal suspension before the addition of mepivacaine was 7.95, while after the addition of the drug changed to 7.1. The gel+mepivacaine was placed in a Pur-L-Lyzer™ dialysis tube with a molecular weight cut-off of 12000 Da, while the control group is represented by the mepivacaine dissolved in PBS (2% w/v) and placed in a dialysis tubes with the same molecular weight cut-off. The tubes were incubated in 30 mL of phosphate buffer saline solution (PBS) at 37° C., and the solution was changed at different time points comprised between 0 and 168 hours. In order to calculate the amount of drug released, the extracted solutions were analyzed with UV-Vis spectroscopy following the absorption of mepivacaine at 263 nm. All experiments were done in triplicates.

total release of drug ([1]; after 8 hours, PBS, 37° C.): 90±5% | stability of mepivacaine in contact with the gel (UV-Vis spectra) ([1]; after 24 hours from the beginning of the release experiment): molecular integrity of the drug
Compound: Cc1cccc(C)c1NC(=O)C1CCCCN1C (stereo not drawn) [mepivacaine]
force to fracture, fractured versus non-fractured tibia (mice tibial fracture): significantly different
